Laboratory results published in ChEMBL document CHEMBL1177693, “Antimalarials from nature” (Bioorg Med Chem, 2009).
Values after ≈ are worked out from the molar mass of the structure shown.

Each compound was assayed on Plasmodium falciparum (assay: Antimalarial activity against chloroquine-resistant Plasmodium falciparum Dd2). Details: not given.
Type: functional, organism-based

| Compound | IC50 [µg/mL] |
| --- | --- |
| C=C1C(=O)O[C@H]2[C@H]1[C@@H](OC(C)=O)CC(=C)[C@]1(O)CC=C(C)[C@H]21 | 10.8 (≈ 35.5 µM) |
| COc1ccc(-c2cc(=O)oc3c(OC)c(OC)cc(OC)c23)cc1 | 3.6 (≈ 10.5 µM) |

Each compound was assayed on Plasmodium falciparum (assay: Antimalarial activity against Plasmodium falciparum). Details: Plasmodium falciparum.
Type: functional, organism-based

| IC50 | EC50 [µg/mL] | MIC [µM] | Compound |
| --- | --- | --- | --- |
| 0.0102 µg/mL | – | – | COc1cc2c(cc1OC)[C@H](Cc1ccc(Oc3c(O)c(OC)cc4c3C[C@@H]3c5c(c(O)c(OC)c(OC)c5-4)CCN3C)cc1)N(C)CC2 |
| 0.0112 µg/mL | – | – | COc1cc2c(cc1O)CCN(C)[C@H]2Cc1ccc(Oc2c(O)c(OC)cc3c2C[C@@H]2c4c(cc(OC)c(OC)c4-3)CCN2C)cc1 |
| 42900 nM | – | – | COc1ccc2c(OC)c3c(C)cc(=O)[nH]c3c(OC)c2c1OC |
| 2.8 µg/mL | – | – | COc1cc2c(cc1O)[C@@H]1C[C@H](C[C@H]3CCCCN31)OC(=O)/C=C\c1ccc(O)c-2c1 |
| 42.3 µg/mL | – | – | CC1(C)C(=O)CC[C@]2(C)[C@H]3CC(O)[C@@H]4[C@@]5(C)CC[C@](O)(C(C)(C)O)[C@H]5[C@@H](O[C@H]5OC[C@@H](O)[C@@H](O)[C@@H]5O)C[C@@]4(C)[C@]3(C)CC[C@@H]12 (mixture of isomers) [GLINOSIDE A] |
| 0.2 µg/mL | – | – | C[C@@]12C=CC(=O)[C@@]3(C)[C@H]1[C@@H](OC2)[C@@H](OC(=O)c1ccccc1)[C@@]1(C)C2=CC[C@@H](C4=CC(O)OC4=O)[C@]2(C)C[C@@H]2O[C@]231 (mixture of isomers) [TRICHIRUBINE B] |
| > 20 µg/mL | – | – | C=C1C2CC[C@@]3(C)[C@H](c4ccoc4)OC(=O)C[C@]13O[C@H]1CC(=O)C(C)(C)[C@H](C(O)C(=O)OC)[C@@]21C (some centres not stated) [6-HYDROXYANGOLENSIC ACID METHYL ESTER] |
| 1.5 µg/mL | – | – | COC1=C(OC)C(=O)C([C@H]2COc3c(cc(OC)c(OC)c3OC)C2)=CC1=O [ABRUQUINONE B] |
| 14000 nM | – | – | CCCCCCCCCCCCCC1CC(=O)NCCCNCCCCNCCCN1 (configuration not stated) [BUDMUNCHIAMINE L4] |
| 15000 nM | – | – | CCCCCCCCCCCCCCCC1CC(=O)NCCCNCCCCNCCCN1 (configuration not stated) [BUDMUNCHIAMINE L5] |
| 2.7 µg/mL | – | – | CC(C)=CCc1c(O)cc2oc3ccc4c(c3c(=O)c2c1O)C=CC(C)(C)O4 [CALOTHWAITESIXANTHONE] |
| 1.5 µg/mL | – | – | COc1cc2c(=O)c3c(O)c(C/C=C(\C)CCC=C(C)C)c(O)cc3oc2cc1O [COWAXANTHONE] |
| – | 2 (≈ 6.13 µM) | – | Cc1c(O)cc2c3c1OC(C)(C)CC3c1ccc(O)c(O)c1CC2 (stereo not drawn) [DEMETHYLRACEMOSOL] |
| 8.5 µg/mL | – | – | C=CC(C)(C)c1c2c(c(OC)c3ccc(=O)oc13)C=CC(C)(C)O2 [DENTATIN] |
| > 20 µg/mL | – | – | C=C1C([C@@]2(C)C=CC(=O)C(C)(C)[C@@H]2[C@H](O)C(=O)OC)CC[C@@]2(C)[C@H](c3ccoc3)OC(=O)C[C@]12O (some centres not stated) [DOMESTICULIDE A] |
| 3.2 µg/mL | – | – | C=C1C([C@@]2(C)C=CC(=O)C(C)(C)[C@@H]2[C@H](OC(C)=O)C(=O)OC)CC[C@@]2(C)[C@H](c3ccoc3)OC(=O)C[C@]12O (some centres not stated) [DOMESTICULIDE B] |
| 1.1 µg/mL | – | – | COc1c2c(cc(O)c1-c1cc(-c3ccc4c(-c5c(O)cc(O)c6c5C[C@@H](C)N[C@@H]6C)c(C)cc(OC)c4c3O)c(O)c3c(OC)cc(C)cc13)C[C@@H](C)N=C2C [KORUNDAMINE A] |
| 16500 nM | – | – | C=C1C(=O)O[C@@H]2/C=C(/C)C3=CC(=O)[C@](C)(O3)[C@H](O)[C@@H](OC(=O)CC(C)C)[C@@H]12 [LOBATIN B] |
| – | – | 13.1 (≈ 5.58 µg/mL) | C=C(C)[C@@H]1CC[C@]2(C)CC[C@]3(C)[C@H](CC[C@@H]4[C@@]5(C)CC[C@H](O)C(C)(C)[C@@H]5CC[C@]43C)[C@@H]12 [LUPEOL] |
| 17000 nM | – | – | COc1c(O)cc2oc3cc(O)c(CC=C(C)C)c(O)c3c(=O)c2c1CC=C(C)C [MANGOSTIN] |
| 38300 nM | – | – | CC(O)c1cncc2c(=O)n3c(cc12)-c1[nH]c2ccc(O)cc2c1CC3 (configuration not stated) [NAUCLEOFFICINE E] |
| 620 nM | – | – | C=C1C(=O)O[C@@H]2C[C@@H](C)/C=C\C(=O)[C@@](C)(O)[C@H](OC(C)=O)[C@@H](OC(=O)CC(C)C)[C@@H]12 [NEUROLENIN B] |
| – | 0.9 (≈ 2.64 µM) | – | COc1ccc2c(c1O)CCc1cc(O)c(C)c3c1C2CC(C)(C)O3 (stereo not drawn) [RACEMOSOL] |
| 5130 nM | – | – | CC(C)=CCc1cc(/C=C/C(=O)c2cc(CC=C(C)C)c(O)cc2O)ccc1O [STIPULIN] |
| 2400 nM | – | – | Cc1cc(O)c2c(c1)[C@H]([C@H]1O[C@H](OC(=O)c3ccccc3)[C@@H](O)[C@@H](O)[C@@H]1O)c1cccc(O)c1C2=O [UVEOSIDE] |
| 4.8 µg/mL | – | – | C=C[C@@]12COC(=O)C(=C)[C@@H]1[C@@H](O)[C@H](C(=C)C(=O)OC)[C@@H](OC(=O)C(=C)CO)C2 [VERNODALOL] |
| 4.76 µg/mL | – | – | COc1cc2c(cc1OC)[C@@H]1C[C@H](C[C@H]3CCCCN31)OC(=O)/C=C\c1ccc(O)c-2c1 [VERTINE] |

More lines, now with the values behind:

| Compound | IC50 | EC50 [µg/mL] | MIC [µM] |
| --- | --- | --- | --- |
| COc1cc2c3cc1Oc1c(OC)c(OC)cc4c1[C@H](Cc1ccc(OC)c(c1)-c1cc(ccc1O)C[C@H]3N(C)CC2)N(C)CC4 | 1140 nM | – | – |
| COc1cc2c(cc1O)CCN(C)[C@H]2Cc1ccc(Oc2c3c(cc(OC)c2OC)-c2c(OC)c(OC)c(O)c4c2[C@@H](C3)N(C)CC4)cc1 | 0.0242 µg/mL | – | – |
| COc1ccc2cc1Oc1cc3c(cc1OC)CCN(C)[C@@H]3Cc1ccc(cc1)Oc1c(O)c(OC)cc3c1[C@@H](C2)N(C)CC3 | 353 nM | – | – |
| C[C@@]12C=C3OC[C@]4(C)C=CC(=O)[C@@](C)([C@@H]34)[C@@]13O[C@H]3C[C@@]1(C)[C@H](C3=CC(O)OC3=O)C[C@H]3O[C@@]321 (mixture of isomers) [TRICHIRUBINE A] | 0.3 µg/mL | – | – |
| O=C1O[C@@H]2[C@@H](OC(=O)c3cc(O)c(O)c(O)c3-c3c1cc(O)c(O)c3O)[C@H](O)O[C@@H]1COC(=O)c3cc(O)c(O)c(O)c3-c3c(O)c(O)c4oc(=O)c5c(c(O)c(O)c6oc(=O)c3c4c65)-c3c(cc(O)c(O)c3O)C(=O)O[C@@H]21 (racemic) [PUNICALAGIN] | 27.7 µg/mL | – | – |
| C=C(C)C(O)Cc1cc(C(=O)/C=C/c2ccc(O)c(CC=C(C)C)c2)c(O)cc1O (configuration not stated) [BARTERICIN A] | 2150 nM | – | – |
| C=CC(C)(C)c1cc2c(O)c3c(c(C(C)(C)C=C)c2oc1=O)OC(C)(C)C=C3 [CLAUSARIN] | 0.1 µg/mL | – | – |
| CC[C@H](C)[C@@H]([C@@H](CC(=O)N1CCC[C@H]1[C@H](OC)[C@@H](C)C(=O)N[C@@H](Cc1ccccc1)c1nccs1)OC)N(C)C(=O)[C@@H](NC(=O)[C@H](C(C)C)N(C)C)C(C)C [DOLASTATIN-10] | 0.1 nM | – | – |
| C=C1[C@@H](O)[C@@]2(O)OC[C@]34[C@H]2[C@@]2(C)[C@H](O)C(=O)C=C(C)[C@@H]2C[C@H]3OC(=O)[C@H](O)[C@@]14O [EURYCOMANONE] | 0.04 µg/mL | – | – |
| NC[C@H](Cl)[C@@H](O)c1c[nH]c(N)n1 [GIRACODAZOLE] | 77 nM | – | – |
| C/C(=C\[C@@H](O)[C@H](O)[C@@H](C)C1=CC[C@@]2(C)C[C@@H]3[C@H](C)CC[C@@H]3/C(C(=O)O)=C\C[C@H]12)C(=O)O [HALOROSELLINIC ACID] | 13 µg/mL | – | – |
| C=C1C(=O)O[C@@H]2C[C@@H](C)[C@@H]3C=CC(=O)[C@@]3(C)[C@@H](O)[C@H]12 [HELENALIN] | 230 nM | – | – |
| COc1cc2c3c(c1O)Oc1ccc(cc1)C[C@@H]1c4c(cc(OC)c(O)c4Oc4ccc(cc4)C[C@H]3N(C)CC2)CCN1C [ISOCHONDODENDRINE] | 892 nM | – | – |
| O[C@H]1[C@H]2c3cc4c(cc3CN3CCC(=C[C@@H]1O)[C@H]23)OCO4 [LYCORINE] | 0.62 µg/mL | – | – |
| O=C1OC(O)C(Br)=C1Br (configuration not stated) [MUCOBROMIC ACID] | 0.359 µg/mL | – | – |
| O=C1OC(O)C(Cl)=C1Cl (configuration not stated) [MUCOCHLORIC ACID] | 0.137 µg/mL | – | – |
| C/C=C(/CO[C@H]1O[C@@H](CO)[C@H](O)[C@@H](O)[C@@H]1O)c1cc2n(c(=O)c1CO)CCc1c-2[nH]c2ccccc12 [NAUCLEOFFICINE A] | 9700 nM | – | – |
| CC1=CC(=O)[C@@H](O)[C@]2(C)[C@H]3[C@]4(O)OC[C@@]35[C@@H](C[C@@H]12)OC(=O)[C@H](O)[C@@]5(O)[C@@]1(CO1)[C@H]4O [PASAKBUMIN B] | 0.0226 µg/mL | – | – |
| CC1=CC(=O)[C@@H](O)[C@]2(C)[C@H]3[C@]4(O)OC[C@@]35[C@@H](C[C@@H]12)OC(=O)[C@H](O)[C@@]5(O)[C@H](C)[C@H]4O [PASAKBUMIN C] | 0.0933 µg/mL | – | – |
| CC1=CC(=O)c2c(O)cccc2C1=O [PLUMBAGIN] | 270 nM | – | – |

These compounds were tested on Plasmodium falciparum (assay: Antimalarial activity against Plasmodium falciparum K1). Details: not given.
Type: functional, organism-based

| Compound | IC50 | EC50 [µg/mL] |
| --- | --- | --- |
| COc1c(OCCCN(C)C)cc2oc3cc(O)c(CC=C(C)C)c(O)c3c(=O)c2c1CC=C(C)C | < 1000 nM | – |
| CCN(CC)CC(O)COc1cc2oc3cc(O)c(CC=C(C)C)c(O)c3c(=O)c2c(CC=C(C)C)c1OC (configuration not stated) | < 1000 nM | – |
| CCN(CC)CCOc1cc2oc3cc(O)c(CC=C(C)C)c(O)c3c(=O)c2c(CC=C(C)C)c1OC | < 1000 nM | – |
| C[C@H]1C/C=C/[C@@H](O)[C@@H](O)CC/C=C/c2cc(O)cc(O)c2C(=O)O1 [AIGIALOMYCIN D] | 6.6 µg/mL | – |
| CC[C@H](C)[C@H]1OC(=O)[C@H](Cc2ccccc2)N(C)C(=O)[C@@H](C(C)C)OC(=O)[C@H](Cc2ccccc2)N(C)C(=O)[C@@H](C(C)C)OC(=O)[C@H](Cc2ccccc2)N(C)C1=O [BEAUVERICIN A] | – | 12 (≈ 15 µM) |
| CC(C)[C@@H]1OC(=O)[C@@H](Cc2ccccc2)N(C)C(=O)[C@H](C(C)C)OC(=O)[C@@H](Cc2ccccc2)N(C)C(=O)[C@H](C(C)C)OC(=O)[C@@H](Cc2ccccc2)N(C)C1=O [BEAUVERICIN] | – | 1.6 (≈ 2.04 µM) |
| COc1ccc2c3c1O[C@H]1C[C@@H](O)C=C[C@@]31CCN(C)C2 [GALANTAMINE] | 4.38 µg/mL | – |
| COC(=O)C[C@H]1[C@]2(C)C3=C(C)[C@H](c4ccoc4)C[C@H]3O[C@@H]2[C@@H]2OC(=O)[C@]3(C)C=CC(=O)[C@@]1(C)[C@@H]23 [NIMBOLIDE] | – | 0.00095 (≈ 0.00204 µM) |
| CO[C@@H]1C=C[C@@]23c4cc5c(cc4CO[C@]2(O)CN(C)[C@H]3C1)OCO5 [TAZETTINE] | 5.42 µg/mL | – |

What follows are compounds tested on Plasmodium falciparum (assay: Antimalarial activity against Plasmodium falciparum W2). Details: not given.
Type: functional, organism-based

| IC50 [nM] | Compound |
| --- | --- |
| 610 | COc1ccc2cc1Oc1ccc(cc1)C[C@H]1c3c(cc4c(c3Oc3cc5c(cc3OC)CCN(C)[C@@H]5C2)OCO4)CCN1C [CEPHARANTHINE] |
| 32600 | COc1cc2c(cc1OC)[C@@H]1Cc3ccc(OC)c(OC)c3CN1CC2 [TETRAHYDROPALMATINE] |
| 52300 | COc1cc2c(cc1OC)CN1CCc3cc(OC)c(OC)cc3[C@@H]1C2 [XYLOPININE] |

| Compound | IC50 [nM] |
| --- | --- |
| CN1CCc2cc3c(c4c2c1cc1ccccc14)OCO3 [DEHYDROROEMERINE] | 360 |
